This passage reports stoichiometry N and Kd results from PMC8301602 (AIChE journal. American Institute of Chemical Engineers, 2020).

Read-outs that look alike come from different tables or passages of the source.

Experiment [1] addresses EcFbFP (B. subtilis). Put plainly: SEC. (SEC sorts molecules by how far they enter the pores of the column.)
In experiment [2] the target is EcFbFP (B. subtilis). Briefly: SEC. The source holds these as a separate data set.
For a further experiment, the target named is iLOV (Arabidopsis thaliana, UniProt P93025, S394T/S409G/C426A/I452T/F470L/M475V). Put plainly: fluorescence titration of apo protein, emission at […] nm. The format is binding. The conditions noted are these: PBS; noncooperative 1:1 fit, protein concentration fitted.
A further experiment deals with T1, EcFbFP (Bacillus subtilis, UniProt O34627, C62A).
T1 sequence (O34627 1-137 C62A limits assumed): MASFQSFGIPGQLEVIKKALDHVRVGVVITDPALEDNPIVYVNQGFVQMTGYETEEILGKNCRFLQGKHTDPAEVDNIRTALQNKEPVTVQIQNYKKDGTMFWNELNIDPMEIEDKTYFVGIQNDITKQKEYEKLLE
The experiment is described as above. The format is binding.

Chain of iLOV (P93025 387-496 S394T/S409G/C426A/I452T/F470L/M475V limits assumed): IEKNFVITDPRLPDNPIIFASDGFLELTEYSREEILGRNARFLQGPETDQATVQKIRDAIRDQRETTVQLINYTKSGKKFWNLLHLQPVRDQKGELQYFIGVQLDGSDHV

On to EcFbFP, for which the stoichiometry N with EcFbFP (B. subtilis) [1] and in the experiment with EcFbFP (B. subtilis) [2] was 2 each time.
Regarding `Cc1cc2nc3c(=O)[nH]c(=O)nc-3n(C[C@H](O)[C@H](O)[C@H](O)COP(=O)(O)O)c2cc1C` [FMN], the values for the equilibrium dissociation constant (Kd) on iLOV and on EcFbFP were 230 ± 20 nM and 180 ± 30 nM, respectively.
`Cc1cc2nc3c(=O)[nH]c(=O)nc-3n(C[C@H](O)[C@H](O)[C@H](O)CO)c2cc1C` [riboflavin]: the Kd at iLOV amounted to 890 ± 170 nM; on EcFbFP, 760 ± 150 nM.
The like results for `Cc1cc2nc3c(=O)[nH]c(=O)nc-3n(C[C@H](O)[C@H](O)[C@H](O)COP(=O)(O)OP(=O)(O)OC[C@H]3O[C@@H](n4cnc5c(N)ncnc54)[C@H](O)[C@@H]3O)c2cc1C` [FAD] were, in that order, 180 ± 30 nM and 130 ± 20 nM.

In general, stoichiometry N refers to a count of units in the complex or per binding partner. The Kd is the equilibrium constant for the complex coming apart. Read a low Kd as tighter binding.
